Results published in patent US12509452B2, “Substituted-isoxazoline-containing aromatic compound, preparation method therefor, herbicidal composition and use thereof” (QINGDAO KINGAGROOT CHEMICAL COMPOUND CO., LTD., priority 2019, dated 2025).

Columns and labels:
Assay in all cases: weeding effect in post-emergence stage
Assay type in all cases: in vivo
Details in all cases: dose 15 g a.i./ha
Rorippa indica = tested on: Rorippa indica
Method in brief: (§1)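 Potted weeds were sown, covered with 0.5-2 cm soil and grown in a greenhouse, then sprayed at the 2-3 leaf stage (2 weeks after sowing) via spray tower; compounds in acetone with Tween 80 and 1.5 liter/ha methyl oleate concentrate; doses 500-7.5 g a.i./ha. Fresh-weight control scored on 0-5 levels after 3 weeks; triplicate means.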

Conyza japonica = tested on: Conyza japonica
Method in brief: as §1

Beckmannia syzigachne = tested on: Beckmannia syzigachne
Method in brief: as §1

Alopecurus japonicus = tested on: Alopecurus japonicus
Method in brief: as §1

Structure (SMILES) | weeding effect in post-emergence stage, Rorippa indica (activity level) (Rorippa indica) | weeding effect in post-emergence stage, Conyza japonica (activity level) (Conyza japonica) | weeding effect in post-emergence stage, Beckmannia syzigachne (activity level) (Beckmannia syzigachne) | weeding effect in post-emergence stage, Alopecurus japonicus (activity level) (Alopecurus japonicus)
CCOC(=O)CCC1(C)CC(c2cc(-n3c(=O)cc(C(F)(F)F)n(C)c3=O)c(F)cc2Cl)=NO1 (stereo not shown) [Compound 1-37] | 5 (Level 5: growth control rate is above 85%) | 5 (Level 5: growth control rate is above 85%) | 5 (Level 5: growth control rate is above 85%) | 5 (Level 5: growth control rate is above 85%)
CCOC(=O)CCCC1(C)CC(c2cc(-n3c(=O)cc(C(F)(F)F)n(C)c3=O)c(F)cc2Cl)=NO1 (stereo not shown) [Compound 1-39] | 5 (Level 5: growth control rate is above 85%) | 5 (Level 5: growth control rate is above 85%) | 5 (Level 5: growth control rate is above 85%) | 5 (Level 5: growth control rate is above 85%)
COC(=O)C1(C)CC(c2cc(-n3c(=O)n(C)c(=S)n(C)c3=O)c(F)cc2Cl)=NO1 (stereo not shown) [Compound 1-60] | 5 (Level 5: growth control rate is above 85%) | 5 (Level 5: growth control rate is above 85%) | 5 (Level 5: growth control rate is above 85%) | 5 (Level 5: growth control rate is above 85%)
CCOC(=O)C1(C)CC(c2cc(-n3c(=O)n(C)c(=S)n(C)c3=O)c(Cl)cc2Cl)=NO1 (stereo not shown) [Compound 1-61] | 5 (Level 5: growth control rate is above 85%) | 5 (Level 5: growth control rate is above 85%) | 5 (Level 5: growth control rate is above 85%) | 5 (Level 5: growth control rate is above 85%)
CCOC(=O)[C@]1(C)CC(c2cc(-n3c(=O)n(C)c(=S)n(C)c3=O)c(F)cc2Cl)=NO1 [Compound 1-62] | 5 (Level 5: growth control rate is above 85%) | 5 (Level 5: growth control rate is above 85%) | 5 (Level 5: growth control rate is above 85%) | 5 (Level 5: growth control rate is above 85%)
CCOC(=O)C1(C)CC(c2cc(-n3c(=O)n(CC)c(=S)n(CC)c3=O)c(F)cc2Cl)=NO1 (stereo not shown) [Compound 1-64] | 5 (Level 5: growth control rate is above 85%) | 5 (Level 5: growth control rate is above 85%) | 5 (Level 5: growth control rate is above 85%) | 5 (Level 5: growth control rate is above 85%)
CCOC(=O)C1(C)CC(c2cc(-n3c(=O)n(C(C)C)c(=S)n(C(C)C)c3=O)c(F)cc2Cl)=NO1 (stereo not shown) [Compound 1-65] | 5 (Level 5: growth control rate is above 85%) | 5 (Level 5: growth control rate is above 85%) | 5 (Level 5: growth control rate is above 85%) | 5 (Level 5: growth control rate is above 85%)
CCOC(=O)C1(C)CC(c2cc(-n3c(=O)n(C4CC4)c(=S)n(C4CC4)c3=O)c(F)cc2Cl)=NO1 (stereo not shown) [Compound 1-66] | 5 (Level 5: growth control rate is above 85%) | 5 (Level 5: growth control rate is above 85%) | 5 (Level 5: growth control rate is above 85%) | 5 (Level 5: growth control rate is above 85%)
CCOC(=O)C1(C)CC(c2cc(-n3c(=O)n(C)c(=S)n(C)c3=O)c(F)cc2C(F)(F)F)=NO1 (stereo not shown) [Compound 1-67] | 5 (Level 5: growth control rate is above 85%) | 5 (Level 5: growth control rate is above 85%) | 5 (Level 5: growth control rate is above 85%) | 5 (Level 5: growth control rate is above 85%)
CCOC(=O)C1(C)CC(c2cc(-n3c(=O)n(C)c(=S)n(C)c3=O)c(F)cc2C#N)=NO1 (stereo not shown) [Compound 1-69] | 5 (Level 5: growth control rate is above 85%) | 5 (Level 5: growth control rate is above 85%) | 5 (Level 5: growth control rate is above 85%) | 5 (Level 5: growth control rate is above 85%)
CCCOC(=O)C1(C)CC(c2cc(-n3c(=O)n(C)c(=S)n(C)c3=O)c(F)cc2Cl)=NO1 (stereo not shown) [Compound 1-70] | 5 (Level 5: growth control rate is above 85%) | 5 (Level 5: growth control rate is above 85%) | 5 (Level 5: growth control rate is above 85%) | 5 (Level 5: growth control rate is above 85%)
CC(C)OC(=O)C1(C)CC(c2cc(-n3c(=O)n(C)c(=S)n(C)c3=O)c(F)cc2Cl)=NO1 (stereo not shown) [Compound 1-71] | 5 (Level 5: growth control rate is above 85%) | 5 (Level 5: growth control rate is above 85%) | 5 (Level 5: growth control rate is above 85%) | 5 (Level 5: growth control rate is above 85%)
CCCCOC(=O)C1(C)CC(c2cc(-n3c(=O)n(C)c(=S)n(C)c3=O)c(F)cc2Cl)=NO1 (stereo not shown) [Compound 1-72] | 5 (Level 5: growth control rate is above 85%) | 5 (Level 5: growth control rate is above 85%) | 5 (Level 5: growth control rate is above 85%) | 5 (Level 5: growth control rate is above 85%)
